Reference: patent US3989714A, “3-Phenylhydroindoles” (priority 1974, dated 1976)
“And” between values parts separate entries of the source, which are not always exact repeats. Equal values may be shown once. Where a name gives a salt, the structure may show the parent alone.

Key:
[1] = system: HeLa; experiment: in vitro; format: cell-based, Human
Description: (§1) Compounds of the present invention show antiviral activity in concentrations of 50 to 100 γ/ml when tested in liquid media using the procedure of Rightsel (Univ. of Mich. Med. Bull. 24:222-234 (1958)) and on solid media using the Herrmann modification of the Dulbecco Technique (Proc. Nat. Acad. Sci., Wash. 38:747-752 (1952); Proc. Soc. Exp. Bio., N.Y., 103: 625-628 (1960)).
(§2) More particularly the protocol for the Rightsel procedure used is as follows:
(§3) ANTIVIRAL ACTIVITY TUBE METHOD
(§4) PURPOSE: The determination of toxicity and antiviral activity of
(§5) experimental compounds in normal and cancer cell lines
(§6) in vitro in tubes with liquid culture media.
(§7) MATERIALS: Cell Lines - cancer
(§8) HeLa - Human Carcinoma of the Cervix
(§9) Roller bottles are seeded with approximately 10^7 cells
(§10) in […] growth medium and rotated at 0.5 rpm on
(§11) the Bellco roller apparatus at 37° C until the cell
(§12) Trypsinization - Cells are resuspended in growth medium
(§13) at a concentration of […] HeLa cells/ml.
(§14) cell suspensions are gassed with CO2 to a pH of 6.8.
(§15) Sterile plastic tubes are seeded with 1.0 ml of cell
(§16) suspension and incubated in a stationary position for
(§17) two days (until cell sheet is confluent).
(§18) The compound is dissolved in distilled water at a maximum
(§19) concentration of 500 gamma/ml. Where necessary, NaOH,
(§20) HCl or ethanol is used to dissolve the material. The
(§21) pH of the final solution is adjusted as closely as
(§22) possible to pH 7.2. This stock solution is then
(§23) diluted with medium to contain appropriate concentrations
(§24) for 1 hour. Cytotoxicity and control tubes are rolled
(§25) with just 0.1 ml of medium. After a 1 hour adsorption
(§26) RECORDING: HeLa cell cultures are read every day, starting on day 3
(§27) and readings are continued until culture controls have
(§28) shown a non-specific cytopathic effect (CPE) in about
(§29) 5-6 days. WI-38 cultures are read every other day,
(§30) Compound cytoxicity is recorded as 0 - 4+, depending
(§31) on the degree and nature of the CPE. Viral CPE is
(§32) the cell sheet showing virus growth. Four tubes are
(§33) used for each concentration of compound and for each
(§34) concentration of virus dilution, and the four CPE
(§35) ratings within each group are averaged.

[2] = in vitro; format: cell-based, Human; conditions: human, hela cells
Description: as §1, §2, §3, §4, §5, §6, §7, §8, §9, §10, §11, §12, §13, §14, §15, §16, §17, §18, §19, §20, §21, §22, §23, §24, §25, §26, §27, §28, §29, §30, §31, §32, §33, §34, §35

[3] = system: Rhinovirus 2 (HGP); experiment: Antiviral activity tube method (Rightsel procedure), liquid media, HeLa cells; format: cell-based; conditions: for Antiviral: concentration at which active, Day 4: 20 TCID50 (Example 7)
Description: as §1, §2, §3, §4, §5, §6, §7, §8
(§36) Virus - Rhinovirus 2 (HGP)
Growth Medium - Basal Medium Eagle (BME) with Earle's
salts, containing 10 % fetal bovine serum,
penicillin (100 units/ml.) and
streptomycin (100 mcg./ml.)
Maintenance Medium - A 1:1 mixture of BME and Medium
199; contains 2 % fetal bovine serum.
Trypsin - (1-300) 0.25 % in Ca-free and Mg-free
Hanks' balanced salt solution (BSS)
Roller Bottles - Bellco
Tubes - Sterile 16 × 150 mm plastic screw top
as §9, §10, §11, §12, §13, §14, §15, §16, §17, §18, §19, §20, §21, §22, §23
The virus is thawed rapidly at 37° C and diluted
in maintenance medium - to 10-^8 for titration and to an
estimated 10 - 100 Tissue Culture Infectious Dose50
PROCEDURE: The growth medium is decanted from the cell sheet in the
Adsorbed virus system: 0.1 ml of virus dilution is added
to each of the tubes and the tubes are rolled at 33°
as §24, §25
period, 0.9 ml of the appropriate dilution of the test
compound is added to each of the tubes and the tubes
are returned to the roller apparatus.
Unadsorbed virus system: 0.1 ml of the diluted virus and
0.9 ml of the diluted test compound are added simultaneously
to a tube and the tubes rotated at 33° C.
as §26, §27, §28, §29
starting with day 3, for 10-14 days.
as §31
also recorded as 0 - 4+, depending on the percent of
as §32, §33, §34, §35
To be considered active, a specific concentration of a test
compound must average 2 or more points below that of the
virus control. Actual TCID50 of virus used is
by method of Reed and Muench.

[4] = system: HeLa; experiment: Cytotoxicity, solid media (disc), zones of cytotoxicity; format: cell-based, Human; conditions: Day 5, 100 mcg disc
Description: as §1
(§37) The procedure for the Herrmann modification used is as follows:
(§38) TEST NAME: Antiviral Activity, Solid Media
(§39) PURPOSE: The determination of toxicity and antiviral activity
(§40) of experimental compounds in normal and cancer cell
(§41) lines as measured by plaque suppression in solid media.
(§42) MATERIALS: Cell Line - Cancer
(§43) HeLa - Human carcinoma of the cervix
as §9
in 250-300 ml of growth medium and rotated at 0.5 rpm on
as §11
Cells are removed from the glass surface with trypsin.
The cells are resuspended in medium to a concentration
of 2.0 × 10^5 /ml. Falcon plastic 60 × 15 mm
seeded with 5.0 ml of cell suspension and incubated for
48 hours at 37° C in Pyrex baking dishes sealed with
Water-soluble compounds are prepared in distilled water
with the aid of HCl or NaOH as necessary. Solutions
are Millipore filtered. Water insoluble compounds are
Sterile Schleicher and Schuell 1/4" penicillin assay […]
(§44) measured across the entire diameter (including disc).

[5] = system: Rhinovirus 2 (HGP); experiment: Antiviral Activity, Solid Media (Herrmann modification of the Dulbecco technique), plaque suppression by disc, HeLa cells; format: cell-based; conditions: Rhinovirus 2 HGP adsorbed, Day 5, 100 mcg disc, virus 66 PFU/ml (Example 4), 970 PFU/ml (Example 7)
Description: as §1, §37, §38, §39, §40, §41, §42, §43, §36
Growth Medium - Basal Medium Eagle (BME) containing 10 %
fetal bovine serum, penicillin (100 units/ml)
and streptomycin (100 mcg/ml).
Trypsin - (1-300) 0.25 % trypsin in Ca-free and Mg-free
Hanks' balanced salt solution (BSS).
(1) Rhinovirus: A 1:1 mixture of BME and
Medium 199. Contains 2 % fetal bovine serum
(FBS); 30 mM MgCl2; 0.3 % Tris; 30 gamma/ml
diethylaminoethyl (DEAE) dextran and 1 %
Wash Fluid - Phosphate-buffered saline (PBS) containing
Discs - Sterile Schleicher and Schuell 1/4"
penicillin assay discs.
Plates - Falcon plastic 60 × 15 mm dishes. […]
as §44
The number of plaques on titration plates are counted to […]

COc1ccccc1C1C[N+]([O-])=C2CCCCC21.Cl (stereo not shown) [Example 13, 3,3a,4,5,6,7-hexahydro-3-(o-methoxyphenyl)-2H-indole 1-oxide hydrochloride]
Cytotoxicity: concentration at which toxic, Day 5 [1]: 108-10.5
toxic effect on the cells [1]: undetermined toxic effect on the cells was observed
MNTC at 96 h [2]: 108 µg/mL
antiviral activity after four days of incubation, liquid test ([3]; liquid test, four days of incubation): showed antiviral activity

COc1ccc(C2CN(O)C3(C)CCCCC23)cc1OC (stereo not shown) [Example 7, 3-(3,4-Dimethoxyphenyl)hexahydro-1-hydroxy-7a-methyl-indoline]
toxic effect of undetermined origin, day 5 [1]: very slight toxic effect
MCC at 120 h [2]: 100 µg/mL
MNTC at 96 h [2]: 100 µg/mL
Antiviral: concentration at which active, Day 4 ([3]; Tube, HeLa, Rhinovirus 2 HGP nonadsorbed, virus 31 TCID50 (Example 13), 100 TCID50 (Example 4), active = averages 2 or more points below virus control): 100 µg/mL and 50 µg/mL
Antiviral: concentration at which active, Day 5 ([3]; Tube, HeLa, Rhinovirus 2 HGP nonadsorbed, Day 5, 20 TCID50, active = averages 2 or more points below virus control): 100 µg/mL and 50 µg/mL
antiviral activity in the liquid system on 4th and 5th days ([3]; liquid system, both the 4th and 5th days of incubation): showed activity at two concentrations
Cytotoxicity, disc [4]: Nontoxic
Antiviral, disc [5]: inactive

COc1ccc(C2CN(O)C3CCCCC23)cc1OC (stereo not shown) [Example 4, 3-(3,4-dimethoxyphenyl)hexahydro-1-hydroxyindoline hydrochloride]
Cytotoxicity: concentration at which toxic, Day 5 [1]: 100-12.5
toxic effect on the cells [1]: undetermined toxic effect on the cells was observed
MNTC at 96 h [2]: 100 µg/mL
Antiviral: concentration at which active, Day 4 ([3]; Tube, HeLa, Rhinovirus 2 HGP nonadsorbed, virus 31 TCID50 (Example 13), 100 TCID50 (Example 4), active = averages 2 or more points below virus control, hydrochloride): 100 µg/mL and 50 µg/mL
Antiviral: concentration at which inactive, Day 5 ([3]; Tube, HeLa, Rhinovirus 2 HGP nonadsorbed, Day 5, virus 31 TCID50 (Example 13), 100 TCID50 (Example 4)): 6.25 µg/mL
Cytotoxicity, disc [4]: Nontoxic
Antiviral, disc ([5]; hydrochloride): inactive
